From patent US6124269A, “2-Halo-6-O-substituted ketolide derivatives” (priority 1998, dated 2000)
≈ marks a conversion by molar mass, not a printed value.

Assays:
Type in all cases: cell-based
[1] = system: Staphylococcus aureus ATCC 6538P; assay: In vitro agar dilution MIC, organism code AA; settings: Table 1B, unit assumed
Experimental: (§1) Representative compounds of the present invention were assayed in vitro for antibacterial activity as follows: Twelve petri dishes containing successive aqueous dilutions of the test compound mixed with 10 mL of sterilized Brain Heart Infusion (BHI) agar (Difco 0418-01-5) were prepared. Each plate was inoculated with 1:100 (or 1:10 for slow-growing strains, such as Micrococcus and Streptococcus) dilutions of up to 32 different microorganisms, using a Steers replicator block. The inoculated plates were incubated at 35-37° C. for 20 to 24 hours. In addition, a control plate, using BHI agar containing no test compound, was prepared and incubated at the beginning and end of each test.
(§2) An additional plate containing a compound having known susceptibility patterns for the organisms being tested and belonging to the same antibiotic class as the test compound was also prepared and incubated as a further control, as well as to provide test-to-test comparability.
(§3) After incubation, each plate was visually inspected. The minimum inhibitory concentration (MIC) was defined as the lowest concentration of drug yielding no growth, a slight haze, or sparsely isolated colonies on the inoculum spot as compared to the growth control.

[2] = system: Staphylococcus aureus A5177; assay: In vitro agar dilution MIC, organism code BB; settings: Table 1B, in µg/mL (unit assumed)
Experimental: as §1, §2, §3

[3] = system: Staphylococcus aureus A-5278; assay: In vitro agar dilution MIC, organism code CC; settings: Table 1B, unit assumed
Experimental: as §1, §2, §3

[4] = system: Staphylococcus aureus CMX 642A; assay: In vitro agar dilution MIC, organism code DD; settings: Table 1B, unit assumed
Experimental: as §1, §2, §3

[5] = system: Staphylococcus aureus NCTC10649M; assay: In vitro agar dilution MIC, organism code EE; settings: Table 1B, unit assumed
Experimental: as §1, §2, §3

[6] = system: Staphylococcus aureus CMX 553; assay: In vitro agar dilution MIC, organism code FF; settings: Table 1B, unit assumed
Experimental: as §1, §2, §3

[7] = system: Staphylococcus aureus 1775; assay: In vitro agar dilution MIC, organism code GG; settings: Table 1B, unit assumed
Experimental: as §1, §2, §3

[8] = system: Staphylococcus epidermidis 3519; assay: In vitro agar dilution MIC, organism code HH; settings: Table 1B, in µg/mL (unit assumed)
Experimental: as §1, §2, §3

[9] = system: Enterococcus faecium ATCC 8043; assay: In vitro agar dilution MIC, organism code II; settings: Table 1B, unit assumed
Experimental: as §1, §2, §3

[10] = system: Streptococcus bovis A-5169; assay: In vitro agar dilution MIC, organism code JJ; settings: Table 1B, unit assumed
Experimental: as §1, §2, §3

[11] = system: Streptococcus agalactiae CMX 508; assay: In vitro agar dilution MIC, organism code KK; settings: Table 1B, unit assumed
Experimental: as §1, §2, §3

[12] = system: Streptococcus pyogenes EES61; assay: In vitro agar dilution MIC, organism code LL; settings: Table 1B, unit assumed
Experimental: as §1, §2, §3

[13] = system: Streptococcus pyogenes 930; assay: In vitro agar dilution MIC, organism code MM; settings: Table 1B, unit assumed
Experimental: as §1, §2, §3

[14] = system: Streptococcus pyogenes PIU 2548; assay: In vitro agar dilution MIC, organism code NN; settings: Table 1B, unit assumed
Experimental: as §1, §2, §3

[15] = system: Micrococcus luteus ATCC 9341; assay: In vitro agar dilution MIC, organism code OO; settings: Table 1B, unit assumed
Experimental: as §1, §2, §3

[16] = system: Micrococcus luteus ATCC 4698; assay: In vitro agar dilution MIC, organism code PP; settings: Table 1B, in µg/mL (unit assumed)
Experimental: as §1, §2, §3

[17] = system: Escherichia coli JUHL; assay: In vitro agar dilution MIC, organism code QQ; settings: Table 1B, in µg/mL (unit assumed)
Experimental: as §1, §2, §3

[18] = system: Escherichia coli SS; assay: In vitro agar dilution MIC, organism code RR; settings: Table 1B, in µg/mL (unit assumed)
Experimental: as §1, §2, §3

[19] = system: Escherichia coli DC-2; assay: In vitro agar dilution MIC, organism code SS; settings: Table 1B, unit assumed
Experimental: as §1, §2, §3

[20] = system: Candida albicans CCH 442; assay: In vitro agar dilution MIC, organism code TT; settings: Table 1B, unit assumed
Experimental: as §1, §2, §3

[21] = system: Mycobacterium smegmatis ATCC 114; assay: In vitro agar dilution MIC, organism code UU; settings: Table 1B, in µg/mL (unit assumed)
Experimental: as §1, §2, §3

[22] = system: Nocardia asteroides ATCC 9970; assay: In vitro agar dilution MIC, organism code VV; settings: Table 1B, in µg/mL (unit assumed)
Experimental: as §1
as §2, with “comparability. Erythromycin A was used for this purpose.” for “comparability.”
as §3

[23] = system: Haemophilis influenzae DILL AMP R; assay: In vitro agar dilution MIC, organism code WW; settings: Table 1B, unit assumed
Experimental: as §1, §2, §3

[24] = system: Streptococcus pneumoniae ATCC 6303; assay: In vitro agar dilution MIC, organism code XX; settings: Table 1B, unit assumed
Experimental: as §1, §2, §3

[25] = system: Streptococcus pneumoniae GYR 1171; assay: In vitro agar dilution MIC, organism code YY; settings: Table 1B, unit assumed
Experimental: as §1, §2, §3

[26] = system: Streptococcus pneumoniae 5979; assay: In vitro agar dilution MIC, organism code ZZ; settings: Table 1B, unit assumed
Experimental: as §1, §2, §3

[27] = system: Streptococcus pneumoniae 5649; assay: In vitro agar dilution MIC, organism code ZZA; settings: Table 1B, unit assumed
Experimental: as §1, §2, §3

Row | Structure (SMILES) | MIC [1] [mg/L] | MIC [2] | MIC [3] [mg/L] | MIC [4] [mg/L] | MIC [5] [mg/L] | MIC [6] [mg/L] | MIC [7] [mg/L] | MIC [8] | MIC [9] [mg/L] | MIC [10] [mg/L] | MIC [11] [mg/L] | MIC [12] [mg/L] | MIC [13] [mg/L] | MIC [14] [mg/L] | MIC [15] [mg/L] | MIC [16] | MIC [17] | MIC [18] | MIC [19] [mg/L] | MIC [20] [mg/L] | further results
1 | CC[C@H]1OC(=O)[C@@](C)(F)C(=O)[C@H](C)[C@@H](O[C@@H]2O[C@H](C)C[C@H](N(C)C)[C@H]2O)[C@](C)(OC/C=C/c2cnc3ccc(C(N)=O)cc3c2)C[C@@H](C)C(=O)[C@H](C)[C@H]2NC(=O)O[C@@]21C [Example 15] | 0.05 (≈ 0.0605 µM) | 0.05 | > 100 | 0.05 (≈ 0.0605 µM) | 0.05 (≈ 0.0605 µM) | 0.05 (≈ 0.0605 µM) | > 100 | 0.05 | 0.05 (≈ 0.0605 µM) | 0.01 (≈ 0.0121 µM) | 0.01 (≈ 0.0121 µM) | 0.01 (≈ 0.0121 µM) | 0.1 (≈ 0.121 µM) | 0.1 (≈ 0.121 µM) | 0.01 (≈ 0.0121 µM) | 0.05 | 25 | 0.2 | 12.5 (≈ 15.1 µM) | > 100 | MIC [21]: 0.39; MIC [22]: 0.05; MIC [23]: 4 mg/L (≈ 4.84 µM); MIC [24]: ≤ 0.004 mg/L; MIC [25]: ≤ 0.004 mg/L; MIC [26]: 0.5 mg/L (≈ 0.605 µM); MIC [27]: 0.25 mg/L (≈ 0.302 µM)
2 | CC[C@H]1OC(=O)[C@@](C)(F)C(=O)[C@H](C)[C@@H](O[C@@H]2O[C@H](C)C[C@H](N(C)C)[C@H]2O)[C@](C)(OC/C=C/c2cnc3ccc(NC)cc3c2)C[C@@H](C)C(=O)[C@H](C)[C@H]2NC(=O)O[C@@]21C [Example 16] | 0.05 (≈ 0.0615 µM) | 0.05 | > 100 | 0.05 (≈ 0.0615 µM) | 0.05 (≈ 0.0615 µM) | 0.05 (≈ 0.0615 µM) | > 100 | 0.05 | 0.02 (≈ 0.0246 µM) | ≤ 0.005 | 0.01 (≈ 0.0123 µM) | 0.01 (≈ 0.0123 µM) | 0.39 (≈ 0.48 µM) | 0.05 (≈ 0.0615 µM) | 0.01 (≈ 0.0123 µM) | 0.05 | 50 | 0.2 | 50 (≈ 61.5 µM) | > 100 | MIC [21]: 0.39; MIC [22]: 0.01; MIC [23]: 2 mg/L (≈ 2.46 µM); MIC [24]: 0.03 mg/L (≈ 0.0369 µM); MIC [25]: 0.03 mg/L (≈ 0.0369 µM); MIC [26]: 1 mg/L (≈ 1.23 µM); MIC [27]: 0.25 mg/L (≈ 0.308 µM)
3 | CC[C@H]1OC(=O)[C@@](C)(F)C(=O)[C@H](C)[C@@H](O[C@@H]2O[C@H](C)C[C@H](N(C)C)[C@H]2O)[C@](C)(OC/C=C/c2cnc3ccc(C=O)cc3c2)C[C@@H](C)C(=O)[C@H](C)[C@H]2NC(=O)O[C@@]21C [Example 17] | 0.05 (≈ 0.0616 µM) | 0.1 | > 100 | 0.1 (≈ 0.123 µM) | 0.2 (≈ 0.246 µM) | 0.1 (≈ 0.123 µM) | > 100 | 0.1 | 0.05 (≈ 0.0616 µM) | 0.01 (≈ 0.0123 µM) | 0.02 (≈ 0.0246 µM) | 0.02 (≈ 0.0246 µM) | 0.78 (≈ 0.961 µM) | 0.2 (≈ 0.246 µM) | 0.02 (≈ 0.0246 µM) | 0.05 | 100 | 0.78 | 100 (≈ 123 µM) | > 100 | MIC [21]: 0.39; MIC [22]: 0.02; MIC [23]: 2 mg/L (≈ 2.46 µM); MIC [24]: 0.03 mg/L (≈ 0.0369 µM); MIC [25]: 0.015 mg/L (≈ 0.0185 µM); MIC [26]: 1 mg/L (≈ 1.23 µM); MIC [27]: 0.5 mg/L (≈ 0.616 µM)
4 | CC[C@H]1OC(=O)[C@@](C)(F)C(=O)[C@H](C)[C@@H](O[C@@H]2O[C@H](C)C[C@H](N(C)C)[C@H]2O)[C@](C)(OC/C=C/c2cnc3ccc(C=NO)cc3c2)C[C@@H](C)C(=O)[C@H](C)[C@H]2NC(=O)O[C@@]21C [Example 18] | 0.02 (≈ 0.0242 µM) | 0.05 | 50 (≈ 60.5 µM) | 0.05 (≈ 0.0605 µM) | 0.05 (≈ 0.0605 µM) | 0.05 (≈ 0.0605 µM) | 50 (≈ 60.5 µM) | 0.05 | 0.02 (≈ 0.0242 µM) | ≤ 0.005 | 0.01 (≈ 0.0121 µM) | ≤ 0.005 | 0.2 (≈ 0.242 µM) | 0.02 (≈ 0.0242 µM) | 0.01 (≈ 0.0121 µM) | 0.02 | 25 | 0.2 | 50 (≈ 60.5 µM) | > 100 | MIC [21]: 0.78; MIC [22]: 0.01; MIC [23]: 2 mg/L (≈ 2.42 µM); MIC [24]: 0.015 mg/L (≈ 0.0181 µM); MIC [25]: 0.015 mg/L (≈ 0.0181 µM); MIC [26]: 0.25 mg/L (≈ 0.302 µM); MIC [27]: 0.25 mg/L (≈ 0.302 µM)
